Each structure is given as a SMILES string. Read-outs that look alike come from different tables or passages of the source.

In the assay the target is human RIP1 kinase domain (2-375) (Homo sapiens (Human), UniProt Q13546). Description: biochemical. The conditions noted are these: 50 uM ATP. Type of assay: biochemical. An outline of the steps: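 Ki^app comes from Morrison tight-binding fits of fractional activity versus compound concentration. Activity was read as ADP production, via tracer displacement lowering fluorescence polarization (633 nm laser). Conditions: 2 h, 50 nM insect-cell-expressed enzyme, 50 uM ATP, 30 mM MgCl2, 1 mM DTT, 0.5% DMSO, pH 7.5 Hepes.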

The mark [1] stands for this setting: human RIP1 kinase domain (2-375), 2 hours incubation, Transcreener ADP assay, read-out: RIP1 Ki.
Setting [2] is: tight-binding apparent inhibition constant, human RIP1 kinase domain (2-375) 50 nM, 2 hours, read-out: Ki.
[3] abbreviates: Table 5, apparent Ki (Morrison tight-binding fit), 50 nM RIP1 kinase domain, 2 hours incubation, read-out: Ki.
The mark [4] stands for this setting: Table 1, apparent Ki (Morrison tight-binding fit), 50 nM RIP1 kinase domain, 2 hours incubation, read-out: RIP1 Ki.
The mark [5] stands for this setting: human RIP1 kinase domain (2-375), Transcreener ADP assay, 2 hours incubation, read-out: RIP1 Ki.

human RIP1 kinase domain (2-375), sequence (Q13546 2-375): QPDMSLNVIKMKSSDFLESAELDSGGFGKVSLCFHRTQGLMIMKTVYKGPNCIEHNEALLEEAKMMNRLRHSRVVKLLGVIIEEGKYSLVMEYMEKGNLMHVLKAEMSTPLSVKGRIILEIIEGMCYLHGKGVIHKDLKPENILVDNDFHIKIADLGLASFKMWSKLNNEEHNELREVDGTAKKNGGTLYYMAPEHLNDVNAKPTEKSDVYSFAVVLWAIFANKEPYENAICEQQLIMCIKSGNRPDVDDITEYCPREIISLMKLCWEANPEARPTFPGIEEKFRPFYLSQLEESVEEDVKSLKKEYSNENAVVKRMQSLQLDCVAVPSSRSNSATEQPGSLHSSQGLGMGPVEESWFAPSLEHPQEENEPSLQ

Consider `CN1C(=O)[C@@H](NC(=O)c2nnn3c2CC(C(F)(F)F)CC3)COc2ccccc21` (stereo partly drawn) [Example 192, N—((S)-5-methyl-4-oxo-2,3,4,5-tetrahydrobenzo[b][1,4]oxazepin-3-yl)-5-(trifluoromethyl)-4,5,6,7-tetrahydro-[1,2,3]triazolo[1,5-a]pyridine-3-carboxamide], for which the Ki under setting [1] was 105 nM.
On to `Cc1cc2n(n1)CC[C@H](NC(=O)c1ncc3c(n1)C1(CCCOC1)OC3)C(=O)N2C` (stereo partly drawn) [Example 544, N-[(6S)-2,4-dimethyl-5-oxo-7,8-dihydro-6H-pyrazolo[1,5-a][1,3]diazepin-6-yl]spiro[5H-furo[3,4-d]pyrimidine-7,3′-tetrahydropyran]-2-carboxamide], for which the Ki under setting [2] worked out at 1200 nM.
For the compound `CN1C(=O)C(NC(=O)c2ncn(Cc3ccccc3)n2)CCn2nc(CN3CC(F)C3)cc21` (single isomer, unassigned) [Example 721, 1-benzyl-N-[2-[(3-fluoroazetidin-1-yl)methyl]-4-methyl-5-oxo-7,8-dihydro-6H-pyrazolo[1,5-a][1,3]diazepin-6-yl]-1,2,4-triazole-3-carboxamide], the Ki under setting [3] was 355 nM.
For `CN1C(=O)[C@@H](NC(=O)c2nc3n(n2)[C@@H](c2cnn(C)c2)CCC3)CCn2nccc21` (single isomer, unassigned) [Example 404], under setting [2], the Ki was 318 nM.
`CN1C(=O)[C@@H](NC(=O)c2ncn(Cc3ccccc3)n2)CCn2nc([C@@H]3CC3(F)F)cc21` [Example 147, 1-benzyl-N-((S)-2-((S)-2,2-difluorocyclopropyl)-4-methyl-5-oxo-5,6,7,8-tetrahydro-4H-pyrazolo[1,5-a][1,3]diazepin-6-yl)-1H-1,2,4-triazole-3-carboxamide]: under setting [1], the Ki amounted to 46.2 nM.
In the case of `CN1C(=O)[C@@H](NC(=O)c2nc3cccc(-c4ccccc4)c3s2)COc2ccccc21` [Example 391, (S)—N-(5-methyl-4-oxo-2,3,4,5-tetrahydrobenzo[b][1,4]oxazepin-3-yl)-7-phenylbenzo[d]thiazole-2-carboxamide], the Ki under setting [2] amounted to 65.8 nM.
With `COC1CN(CCc2cc3n(n2)CC[C@H](NC(=O)c2ncn(Cc4ccccc4F)n2)C(=O)N3C)C1` [Example 771, 1-[(2-fluorophenyl)methyl]-N-[(6S)-2-[-(3-methoxyazetidin-1-yl)ethyl]-4-methyl-5-oxo-7,8-dihydro-6H-pyrazolo[1,5-a][1,3]diazepin-6-yl]-1,2,4-triazole-3-carboxamide], the Ki under setting [3] worked out at 172 nM.
For `CN1C(=O)[C@H](NC(=O)c2ncn(Cc3ccccc3)n2)CCn2nc([C@@H]3CC3(F)F)cc21` (stereo in doubt) [Example 675, 1-benzyl-N-[rac-(6R)-4-methyl-5-oxo-2-[rac-(1S)-2,2-difluorocyclopropyl]-7,8-dihydro-6H-pyrazolo[1,5-a] [1,3]diazepin-6-yl]-1,2,4-triazole-3-carcoxamide], the Ki under setting [2] was found to be 16.4 nM.
`CN1C(=O)[C@@H](NC(=O)c2n[nH]c3ncc(C(F)(F)C(F)(F)F)cc23)COc2ccccc21` [Example 117, (S)—N-(5-methyl-4-oxo-2,3,4,5-tetrahydrobenzo[b][1,4]oxazepin-3-yl)-5-(perfluoroethyl)-1H-pyrazolo[3,4-b]pyridine-3-carboxamide]: the Ki under setting [1] is 5.6 nM.
As to `O=C(N[C@H]1CCc2cc(F)cc(F)c2NC1=O)c1ncc2c(n1)C1(CCCC1)OC2` [Example 637, N-[(3S)-7,9-difluoro-2-oxo-1,3,4,5-tetrahydro-1-benzazepin-3-yl]spiro[5H-furo[3,4-d]pyrimidine-7,1′-cyclopentane]-2-carboxamide], the Ki under setting [2] was 18 nM.
On the same count and under the same terms, the same measure for `CN1C(=O)[C@@H](NC(=O)c2nc3n(n2)CCO[C@@H]3c2ccccc2)COc2ccccc21` [Example 517, (8R)-8-phenyl-N-[(3S)-5-methyl-4-oxo-2,3-dihydro-1,5-benzoxazepin-3-yl]-6,8-dihydro-5H-[1,2,4]triazolo[5,1-c][1,4]oxazine-2-carboxamide]: 660 nM; for `CN1C(=O)[C@@H](NC(=O)c2ncn(Cc3ccccc3)n2)CCn2nc(CCCN3CCOCC3)cc21` [Example 662]: 63 nM.
Same read-out and setting: the same measure for `CN1C(=O)[C@@H](NC(=O)c2nccc(C3(O)CCCC3)n2)COc2ccccc21` [Example 509, 4-(1-hydroxycyclopentyl)-N-[(3S)-5-methyl-4-oxo-2,3-dihydro-1,5-benzoxazepin-3-yl]pyrimidine-2-carboxamide]: 440 nM.
As for `CN1C(=O)[C@@H](NC(=O)c2n[nH]c3c2CC2CC2C3)COc2ccccc21` (stereo partly drawn) [Example 56, N-((S)-5-methyl-4-oxo-2,3,4,5-tetrahydrobenzo[b][1,4]oxazepin-3-yl)-1,4,4a,5,5a,6-hexahydrocyclopropa[f]indazole-3-carboxamide], the Ki under setting [4] came to 922 nM.
In the case of `CN1C(=O)[C@@H](NC(=O)c2nc3n(n2)CCNC3c2ccccc2)COc2ccccc21` (stereo partly drawn) [Example 452, N—((S)-5-methyl-4-oxo-2,3,4,5-tetrahydrobenzo[b][1,4]oxazepin-3-yl)-8-phenyl-5,6,7,8-tetrahydro-[1,2,4]triazolo[1,5-a]pyrazine-2-carboxamide], under setting [2], the Ki is 206 nM.
Still for that read-out and setting: the same measure for `Cc1cc2n(n1)CC[C@H](NC(=O)c1ncc3cnn(C(C)C)c3n1)C(=O)N2C` [Example 539, 1-isopropyl-N-[(6S)-2,4-dimethyl-5-oxo-7,8-dihydro-6H-pyrazolo[1,5-a][1,3]diazepin-6-yl]pyrazolo[3,4-d]pyrimidine-6-carboxamide]: 150 nM.
As to `CC1Cn2c(cnc2C(=O)N[C@H]2COc3ccccc3N(C)C2=O)CO1` (stereo partly drawn) [Example 10, 6-methyl-N—((S)-5-methyl-4-oxo-2,3,4,5-tetrahydrobenzo[b][1,4]oxazepin-3-yl)-6,8-dihydro-5H-imidazo[5,1-c][1,4]oxazine-3-carboxamide], under setting [4], the Ki came to 2600 nM.
Regarding `CN1C(=O)[C@@H](NC(=O)c2ncn(Cc3ccccc3F)n2)CCn2nc(C(F)(F)F)cc21` [Example 526], under setting [2], the Ki is 20 nM.
For the compound `CN1C(=O)[C@@H](NC(=O)c2ncn(Cc3cccc(F)c3)n2)CCn2nc(C(F)(F)F)cc21` [Example 527], the Ki under setting [2] was 23 nM.
Take `Cc1cc2n(n1)CC[C@H](NC(=O)c1ncc3cnn(C4CCCC4)c3n1)C(=O)N2C` [Example 543, 1-cyclopentyl-N-[(6S)-2,4-dimethyl-5-oxo-7,8-dihydro-6H-pyrazolo[1,5-a][1,3]diazepin-6-yl]pyrazolo[3,4-d]pyrimidine-6-carboxamide]: under setting [2], the Ki is 68 nM.
As for `CN1C(=O)[C@@H](NC(=O)c2ncn(Cc3cccc(F)c3F)n2)CCn2nc(C3CC3)cc21` [Example 331, (S)—N-(2-cyclopropyl-4-methyl-5-oxo-5,6,7,8-tetrahydro-4H-pyrazolo[1,5-a][1,3]diazepin-6-yl)-1-(2,3-difluorobenzyl)-1H-1,2,4-triazole-3-carboxamide], under setting [5], the Ki stood at 13 nM.
For `CC[C@]1(C)OCc2cc(C(=O)NC3CCn4nc(-c5ccccc5)cc4N(C)C3=O)ncc21` (stereo partly drawn) [Example 265, (3S)-3-ethyl-3-methyl-N-(4-methyl-5-oxo-2-phenyl-5,6,7,8-tetrahydro-4H-pyrazolo[1,5-a][1,3]diazepin-6-yl)-1,3-dihydrofuro[3,4-c]pyridine-6-carboxamide], under setting [5], the Ki came out at 4900 nM.
As to `Cc1ncc2n1CCC(NC(=O)c1ncn(Cc3ccccc3)n1)C(=O)N2C` (racemic) [Example 557, 1-benzyl-N-(1,7-dimethyl-2-oxo-4,5-dihydro-3H-imidazo[1,5-a][1,3]diazepin-3-yl)-1,2,4-triazole-3-carboxamide], under setting [2], the Ki came out at 130 nM.

These data come from patent US10988459B2 (priority 2015, dated 2021).
